Experimental data taken from patent US10537610B1, “Peptide for inhibition of cancer” (priority 2018, dated 2020).

Assays:
JAM-A (CD321) = test: Flow cytometry of JAM-A (CD321) on the surface of HMEC-1 cells; type: cell-based, human; conditions: Tβ4 200 nM, TGF-β1 10 ng/ml or TNF-α 10 ng/mL, 24 hours
Excerpt: For the detection of JAM-A surface expression the cells were labeled with FITC anti-human CD321 (F11R) Mouse IgG1 Antibody (BioLegend, San Diego, Calif., USA) or with the FITC Mouse IgG1 Isotype Control Antibody (BioLegend) for the negative control. Labeled cells were washed to remove unbound antibodies, harvested with ice cold EDTA/PBS, fixed with BD CellFix (Becton Dickinson. Franklin Lakes, N.J., USA) and subsequently analyzed by FACS Canto II flow cytometer (Becton Dickinson). Upon excitation at 488 nm with an argon laser the emission of the fluorescence was recorded through selective band pass filter at 517 nm. Data were recorded with DIVA software, version 6.0 (Becton Dickinson) and subsequently analyzed using FCSalyzer software, version 0.9.14-alpha (https://sourceforge.net/projects/fcsalyzer/).

JAM-A = test: Western blot of JAM-A protein in HMEC-1 cells; type: cell-based, human; conditions: Tβ4 200 nM or TGF-β1 10 ng/mL, 24-hours incubation
Procedure: The cells were lysed with lysis buffer (1% Triton X-100 and 0.1% SDS in PBS) supplemented with Halt Protease Inhibitor Cocktail (Thermo Scientific, Waltham, Mass., USA). For the equalization between the samples before the semi-quantitative analyses the protein content of lysates was determined with the BCA Protein Assay Kit according to the manufacturer's protocol (Thermo Scientific). Cell lysate aliquots at a protein content of 50 μg per sample were boiled with 5× concentrated loading buffer (final concentrations: 50 mM Tris-HCl, pH 6.8, 8% glycerol, 2% SDS, 5% β-mercaptoethanol, 0.002% bromophenol blue), separated under reducing conditions on 4-20% gradient SDS-PAGE gels (Bio-Rad) and electroblotted (120 min, 200 mA, 4° C.) onto polyvinylidene difluoride (PVDF) membranes (Bio-Rad). The membranes were washed with Tris-buffered saline (TBS) and blocked for 2 hours with TBS containing 5% nonfat dry milk at room temperature. Then, the membranes were incubated overnight at 4° C. with an appropriate amount of primary antibody diluted in TBS containing 0.05% Tween 20 (TBST). The following primary antibodies were used: monoclonal rabbit anti-JAM-A (Abcam, Cambridge, UK) at a dilution of 1:500 and monoclonal mouse anti-GAPDH (R&D Systems, Minneapolis, Minn., USA) at a dilution of 1:1000. The membranes were washed several times with TBST and incubated for 1 hour at room temperature with the corresponding polyclonal anti-rabbit and anti-mouse HRP-conjugated secondary antibodies (Santa Cruz Biotechnology, Dallas, Tex., USA) at a 1:5000 dilution in TBST. Following the subsequent washes with TBST the membranes were further processed for chemiluminescent detection using Westar TiC ECL Substrate (Cyanagen, Bologna, Italy) and the images were documented by ChemiDoc MP Imager (Bio-Rad).

JAM-A mRNA = test: RT-PCR of JAM-A mRNA in HMEC-1 cells; type: cell-based, human; conditions: Tβ4 200 nM or TGF-β1 10 ng/mL
soluble JAM-A = test: ELISA of JAM-A antigen in plasma, murine 4T1 breast cancer model; type: in vivo, mouse; conditions: 4T1 tumor-bearing BALB/c mice and control littermates; Tβ4 15 μg/kg or TGF-β1 5 μg/kg i.p., 21 days
Procedure: All in vivo experiments were carried on female BALB/c mice aged 8 to 12 weeks purchased from Animal House of Institute of Biology, University of Bialystok (Bialystok, Poland). The mice were housed under standard conditions at the Animal House of the Medical University of Lodz (Lodz, Poland). All animal procedures and protocols were conducted in accordance with the Guide for the Care and Use of Laboratory Animals of the National Animal Care Committee and were approved by Local Ethical Committee for Animal Research in Lodz (license number 9/LB51/2017 from Jun. 2, 2017). All efforts were made to minimize animal suffering.
Murine 4T1 cells were purchased from the American Type Culture Collection (ATCC, Manassas, Va., USA). The cells were maintained in RPMI-1640 (ATCC) with 10/o fetal bovine serum (FBS) and cultured in tissue culture flasks to 80% confluence. […]
The unbound biotinylated antibody was washed away and HRP-conjugated streptavidin was added to the wells. […] Regarding the both protocols, the enzyme-substrate (HRP-TMB) reaction was terminated by the addition of a sulfuric acid solution and the color change was measured spectrophotometrically at a wavelenght of 450 nm using the Wallac 1420 VICTOR2 Multilabel Counter (PerkinElmer). The concentration of target antigen in the samples was determined by comparing the optical density of the samples to the standard curve.

Substance: tumor necrosis factor-α [TNF-α]
- JAM-A (CD321) level on the cell surface (JAM-A (CD321)): triggered a minor increase of CD321 expression

Substance: Transforming growth factor-β1 [TGF-β1]
- level of JAM-A protein (JAM-A): evidently reduced the level of JAM-A protein
- JAM-A expression on mRNA level (JAM-A mRNA): no observed changes of JAM-A expression on mRNA level
- JAM-A level in plasma (soluble JAM-A): decreased the JAM-A plasma level
- JAM-A (CD321) level on the cell surface (JAM-A (CD321)): slightly decreased JAM-A level on the membrane of HMEC-1 cells
